Measurements as given in patent US20230053540A1, “TREATMENT OF LIVER INJURY” (Massachusetts Institute of Technology, priority 2019, published 2023).

Test system: hepatocytes
Assay: Seq-Well scRNA-Seq of hepatocytes after APAP overdose (signature scores, DEG vs untreated)
Type: in vivo, mouse
Details: A6 vs UT

## CC(=O)Nc1ccc(O)cc1 [APAP, acetaminophen]
  Ddc avg_logFC: −0.3608
  Ddc pct.1: 0.241
  Ddt avg_logFC: −0.5222
  Ddx3x avg_logFC: 0.6569
  Ddx3y A6logFC: 0.3395
  Ddx5 avg_logFC: 0.5229
  Ddx6 avg_logFC: 0.4443
  Ddx6 pct.1: 0.527
  Ddx21 avg_logFC: 0.7314
  Ddx27 A6logFC: 0.2522
  Ddx27 avg_logFC: 0.2522
  Ddx27 pct.1: 0.286
  Deb1 A6logFC: −0.267
  Deb1 avg_logFC: −0.267
  Deb1 pct.1: 0.274
  Dera A6logFC: −0.2674
  Dera avg_logFC: −0.2674
  Dera pct.1: 0.32
  Derl2 A6logFC: −0.3317
  Dgkd avg_logFC: 0.3708
  Dgkd pct.1: 0.282
  Dhrs3 avg_logFC: −0.4676
  Dhrs3 pct.1: 0.198
  Dhrs4 A6logFC: −0.3321
  Diap1 A6logFC: 0.3259
  Diap1 avg_logFC: 0.3259
  Diap1 pct.1: 0.382
  Dio1 avg_logFC: −0.5453
  Dio1 pct.1: 0.253
  Dkc1 avg_logFC: 0.3258
  Dkc1 pct.1: 0.315
  Dnaja2 A6logFC: 0.3723
  Dnajc5 A6logFC: 0.3265
  Dnajc19 A6logFC: −0.316
  Dot1l avg_logFC: 0.397
  Dot1l pct.1: 0.282
  Dsp A6logFC: 0.2655
  Dsp avg_logFC: 0.2655
  Dsp pct.1: 0.32
  Dst avg_logFC: 0.511
  Dst pct.1: 0.43
  Dusp5 avg_logFC: 0.2964
  Dusp6 avg_logFC: 0.5916
  Dusp16 avg_logFC: 0.4605
  Dusp16 pct.1: 0.372
  Dync1h1 A6logFC: 0.3796
  Eaf1 avg_logFC: 0.5218
  Eaf1 pct.1: 0.427
  Ebpl avg_logFC: −0.4503
  Ebpl pct.1: 0.196
  Eea1 A6logFC: 0.2612
  Eea1 avg_logFC: 0.2612
  Eea1 pct.1: 0.363
  Efhd2 avg_logFC: 0.5838
  Egr1 avg_logFC: 0.5846
  Egr1 pct.1: 0.589
  Eif1a avg_logFC: 0.7953
  Eif3a avg_logFC: 0.3147
  Eif3a pct.1: 0.542
  Eif4a1 A6logFC: 0.2519
  Eif4a1 avg_logFC: 0.2519
  Eif4a1 pct.1: 0.418
  Eif4b A6logFC: 0.3682
  Eif4ebp1 A6logFC: 0.2617
  Eif4ebp1 avg_logFC: 0.2617
  Eif4ebp1 pct.1: 0.387
  Eif4g1 avg_logFC: 0.3749
  Eif4g1 pct.1: 0.723
  Eif4g2 avg_logFC: 0.5597
  Eifia A6logFC: 0.3147
  Eifib A6logFC: 0.2503
  Eific A6logFC: 0.302
  Ell2 avg_logFC: 0.4172
  Ell2 pct.1: 0.535
  Elovl3 avg_logFC: −0.5067
  Elovl3 pct.1: 0.568
  Elovl5 A6logFC: 0.3352
  Elovl5 avg_logFC: 0.3352
  Elovl5 pct.1: 0.63
  Epas1 avg_logFC: 0.7758
  Epb4.1 avg_logFC: 0.5628
  Epb4.1 pct.1: 0.537
  Erf3b avg_logFC: 0.2503
  Erf3b pct.1: 0.449
  Errfi1 avg_logFC: 0.3937
  Errfi1 pct.1: 0.943
  Etnppl avg_logFC: 0.4182
  Etnppl pct.1: 0.706
  Ets2 avg_logFC: 0.6956
  Fabp1 avg_logFC: −1.016
  Fabp2 avg_logFC: −0.6156
  Fam25c A6logFC: −0.2977
  Fam107b avg_logFC: 0.4633
  Fam107b pct.1: 0.449
  Fam134b avg_logFC: 0.8936
  Fam195a A6logFC: −0.2649
  Fam214a A6logFC: −0.2658
  Fbxo21 A6logFC: −0.2631
  Fcgr3 avg_logFC: 0.3082
  Fcgr3 pct.1: 0.107
  Fdps A6logFC: −0.2663
  Fdx1 avg_logFC: −0.6234
  Fga avg_logFC: 0.6934
  Fgb avg_logFC: 0.6469
  Fgg avg_logFC: 0.6153
  Fitm1 avg_logFC: −0.3242
  Fitm1 pct.1: 0.012
  Fkbp5 avg_logFC: 0.5161
  Fndc3b avg_logFC: 0.4096
  Fndc3b pct.1: 0.315
  Fpgs avg_logFC: −0.3494
  Fpgs pct.1: 0.146
  Ftsj3 A6logFC: 0.2552
  Ftsj3 avg_logFC: 0.2552
  Ftsj3 pct.1: 0.346
  Furin avg_logFC: 0.2536
  Furin pct.1: 0.477
  Fus A6logFC: 0.3393
  Fxyd1 avg_logFC: −0.4799
  Fxyd1 pct.1: 0.432
  Fxyd5 avg_logFC: 0.2743
  G6pc avg_logFC: −0.9601
  Gabarap avg_logFC: −0.4425
  Gabarap pct.1: 0.518
  Gadd45a A6logFC: 0.2829
  Gadd45a avg_logFC: 0.2829
  Gadd45a pct.1: 0.251
  Gadd45gip1 A6logFC: −0.3041
  Gamt avg_logFC: −0.5603
  Gars A6logFC: 0.2576
  Gars avg_logFC: 0.2576
  Gars pct.1: 0.334
  Gcat A6logFC: −0.2587
  Gcat avg_logFC: −0.2587
  Gcat pct.1: 0.315
  Gcgr A6logFC: −0.2576
  Gcgr avg_logFC: −0.2576
  Gcgr pct.1: 0.446
  Gch1 avg_logFC: −0.2691
  Gch1 pct.1: 0.461
  Gclc avg_logFC: 1.903
  Gclm avg_logFC: 0.2699
  Gclm pct.1: 0.695
  Gcnt2 avg_logFC: 0.5375
  Gda A6logFC: 0.2663
  Gda avg_logFC: 0.2663
  Gda pct.1: 0.243
  Gfra1 avg_logFC: 0.3864
  Gfra1 pct.1: 0.599
  Gjb2 avg_logFC: 0.6082
  Gldc A6logFC: 0.2802
  Gldc avg_logFC: 0.2802
  Gldc pct.1: 0.465
  Glo1 avg_logFC: −0.4066
  Glo1 pct.1: 0.513
  Glyat avg_logFC: −0.6477
  Glyctk A6logFC: 0.2977
  Gm4952 avg_logFC: −0.4987
  Gm4952 pct.1: 0.198
  Gm5424 A6logFC: 0.2698
  Gm5424 avg_logFC: 0.2698
  Gm5424 pct.1: 0.411
  Gm13775 avg_logFC: −1.066
  Gm15564 avg_logFC: 1.443
  Gm20594 A6logFC: 0.2957
  Gm23388 avg_logFC: 0.4162
  Gm23388 pct.1: 0.222
  Gm23935 avg_logFC: 0.4242
  Gm23935 pct.1: 0.878
  Gm24187 avg_logFC: 0.4319
  Gm24187 pct.1: 0.2
  Gm24601 avg_logFC: 0.4684
  Gm26917 avg_logFC: 0.6012
  Gm26917 pct.1: 0.382
  Gm26924 avg_logFC: 1.161
  Gn13 avg_logFC: 0.576
  Gnai2 A6logFC: 0.2817
  Gnai2 avg_logFC: 0.2817
  Gnai2 pct.1: 0.391
  Gnas A6logFC: 0.2589
  Gnas avg_logFC: 0.2589
  Gnas pct.1: 0.79
  Gne avg_logFC: −0.4251
  Gne pct.1: 0.263
  Gnl2 avg_logFC: 0.3905
  Gnl2 pct.1: 0.384
  Gnmt avg_logFC: −0.3334
  Gnmt pct.1: 0.962
  Golga4 avg_logFC: 0.3521
  Gpt2 avg_logFC: 0.5391
  Gpx1 avg_logFC: −0.7686
  Grn avg_logFC: 0.5408
  Gsk3b avg_logFC: 0.4065
  Gsk3b pct.1: 0.384
  Gsr A6logFC: 0.4128
  Gsta1 avg_logFC: 0.4076
  Gstk1 A6logFC: −0.2828
  Gstk1 avg_logFC: −0.2828
  Gstk1 pct.1: 0.351
  Gstm3 avg_logFC: −0.4111
  Gstm3 pct.1: 0.265
  Gstz1 avg_logFC: −0.4641
